Measured values: patent publication US20100173873A1, “TREATMENT OF METASTASIZED TUMORS” (Novartis Vaccines and Diagnostics, Inc., priority 2005, published 2010)

System: PC-3M-luc tumor cells
Assay: PC-3M-luc bone metastatic prostate model
Assay type: in vivo, nude mice
Conditions: 15 mg/kg i.p. 3 times per week
Method: Cell lines. Metastatic human prostate cell line PC-3M expressing null p53, del PTEN, VEGFR, FGFR and stably transfected with a construct of luciferase were obtained under a licensing agreement with Xenogen.
In vivo efficacy studies. […]. Animals received sterile rodent chow and water ad libitum and were housed in sterile filter-top cages with 12 hour light/dark cycles. All experiments were conducted under the guidelines of the Association for Assessment and Accreditation of Laboratory Animal Care International. PC-3M luc bone metastatic model. Human prostate cancer cell line PC-3M-luc cells (1.5×10^6 cells) stably transfected with a construct of luciferase were injected via intracardiac injections. Bioluminescent imaging (Xenogen's IVIS® imaging system) was used to non-invasively monitor the in vivo growth and metastasis of PC-3M-luc tumors after cell inoculation. Nearly all PC-3M-luc tumor cell-injected animals developed prostate lesions, which were mainly localized in the femur, and mandibles. […]. Mice were monitored daily and were euthanized when moribund.
Immunohistochemistry. Bone (femurs, mandible) samples were decalcified (Protocol™, Fisher Diagnostics, Middletown, Va.). Paraffin blocks were sectioned to […] thickness and placed on positively charged glass slides. Tissues were stained with hematoxylin and eosin for general tissue morphology and identification of PC-3M cells in bone.
Nude mice were inoculated with PC-3M-Luc cells intracardiacally with 1.5×10^6 cells. […]. The PC-3M-luc cell lines were purchased from Xenogen and the mice were imaged using Xenogen's IVIS® imaging system.

CC(=O)O[C@H]1C(=O)[C@@]2(C)[C@H]([C@H](OC(=O)c3ccccc3)[C@]3(O)C[C@H](OC(=O)[C@H](O)[C@@H](NC(=O)c4ccccc4)c4ccccc4)C(C)=C1C3(C)C)[C@]1(OC(C)=O)CO[C@@H]1C[C@@H]2O [taxol, reference compound]
Treatment efficacy vs. vehicle: No difference in treatment efficacy
